Results from patent US11202782B2, “Treatment cancers using a combination comprising PARP inhibitors” (BeiGene, Ltd., priority 2016, dated 2021).

Legend:
[1] = test system: Primary tumor cells from a patient with colorectal cancer cultured in Matrigel co-cultured with allogeneic human PBMCs; experiment: IFN-γ release in primary human tumor cells (Matrigel)/PBMC co-culture with EpCAM×CD3 bispecific T cell engager; type: cell-based; details: 50 ng/mL EpCAM×CD3 bispecific T cell engager, 72 hours; Compound B 30 nM, Mab-1 1 μg/mL; treatment group divided by control group
Protocol: After signed the informed consent, healthy human donor's blood was collected and PBMCs were isolated with Ficoll (GE Healthcare, 17-1440-02) according to the manufacturer's protocol with small modification. Briefly, fresh blood was diluted with equivalent volume of 1×DPBS (Gibco®, 14190-144), added equivalent volume of Ficoll into a 50 mL sterile tube, and added diluted blood very carefully onto the surface of the Ficoll. Then centrifuged at 400 g for 40 minutes at room temperature. Carefully removed the upper layer and pipetted the lymphocyte layer to a clean sterile tube, added 3 volumes of 1×DPBS and centrifuge at 200 g for 10 minutes at room temperature. After discarded the supernatant, suspended cells with 10 mL 1×DPBS and washed 2 times more. Suspended cells with 5 mL RPMI-1640 (Gibco®, 22400-089) complete medium (added with 10% fetal bovine serum (Gibco®, 10099-141). […]
Primary tumor cells from a patient with colorectal cancer cultured in Matrigel® were co-cultured with non pre-activated allogeneic human PBMCs, with 50 ng/ml EpCAM×CD3 bispecific T cell engager and with or without an PARP inhibitor named Compound B (30 nM) or an anti-PD-1 antibody named Mab-1 (1 μg/mL), or their combination (named as Mab-1+ Compound B, for short), and cultured for 72 hours. Human IFN-γ in the supernatant of the co-culture system was measured and as the readout (See FIG. 4). […]

[2] = test system: primary human SCLC (extensive-stage) xenograft; experiment: Tumor growth in primary human SCLC (extensive-stage) xenograft model; type: in vivo, BALB/c nude mice; details: cohort2, E/C 3 cycles then Compound B 5.45 mg/kg BID for 21 days
Protocol: (§1) Tumor tissues surgically removed from a patient with extensive-stage SCLC. Within 2 to 4 hours following patient biopsy, the tumor samples were subcutaneously engrafted into the scapular area of anesthetized NOD/SCID mice. After tumors grew to around 300-1000 mm^3, tumors were surgically removed and fragments were passaged in NOD/SCID mice by subsequent engraftments. Engraftment in BALB/c nude mice was conducted after 3 successfully passages in NOD/SCID mice. The right axilla region of each BALB/C nude mouse was cleaned with 70% ethanol prior to tumor fragments inoculation. Each animal was implanted subcutaneously with a fragment (around 3×3×3 mm^3) of the lung cancer in the right flank via 20-gauge trocar needle.
47 days after implantation, animals bearing tumor were divided to two cohorts, cohort lused smaller tumors for combination setting and cohort 2 used bigger tumors for maintenance setting. In cohort1, animals with mean tumor size of ˜150 mm^3 were assigned into 6 groups with 9 mice per group using a stratified randomization procedure. […]
After implantation, primary tumor volume was measured in two dimensions using a caliper. Tumor volume was calculated using the formula: V=0.5×(a×b^2) where a and b are the long and short diameters of the tumor, respectively. […]
Tumor growth inhibition (TGI) was calculated using the following formula: […]

[3] = Body weight and toxicity in primary human SCLC (extensive-stage) xenograft model; type: in vivo, BALB/c nude mice; details: cohort2, Compound B 5.45 mg/kg BID maintenance
Protocol: 47 days after implantation, animals bearing tumor were divided to two cohorts, cohort lused smaller tumors for combination setting and cohort 2 used bigger tumors for maintenance setting. In cohort1, animals with mean tumor size of ˜150 mm^3 were assigned into 6 groups with 9 mice per group using a stratified randomization procedure. Mice were then treated with vehicle (0.5% methylcellulose) twice daily (BID) or Compound B at 5.45 mg/kg BID for 21 days, or E/C [etoposide at 12 mg/kg (Day1-3)+carboplatin at 60 mg/kg (Day1) of a 7 day cycle] for 3 cycles then vehicle BID for 21 days (Day22-42), or the combination of E/C with Compound B at 0.68, 1.36 or 2.73 mg/kg BID (Day1-4 of the 7 day cycle) for 3 cycles then Compound B maintenance therapy at 5.45 mg/kg BID for 21 days (Day22-42). In cohort2, animals with mean tumor size of ˜400 mm^3 were treated with E/C for 3 cycles first. At day22, 20 animals were assigned into 2 groups with 10 mice per group using a stratified randomization procedure, then treated with vehicle (0.5% methylcellulose) twice daily (BID) for 21 days (Day22-42), or Compound B maintenance therapy at 5.45 mg/kg BID for 21 days (Day22-42). All doses were based on free-base weight.

[4] = Particle size distribution of crystalline sesqui-hydrate; type: physicochemical
Protocol: Compound A-Crude 2 (5.3 Kg) was mixed with a solution of isopropanol (41.6 Kg) and water (15.9 Kg). The mixture was degassed and re-protected under nitrogen and then heated to 60° C. and stirred for 2-4 h until the solid was dissolved completely. The temperature was raised to 70-80° C. and water (143 Kg) was added. The resulting mixture was heated to the internal temperature of 70-80° C. and then the heating was stopped but stirred gently for 16 h. The precipitate was filtered, washed with water (19 Kg) and slurred with water (21 kg) for 2 h. The resulting solid was filtered, washed with water (20 Kg). The filtered solid was dried at the temperature below 45° C. for 24-36 h. Compound A sesqui-hydrate (4.22 kg) was obtained with particle sizes of D90=51.51 um, D50=18.62 um, D10=7.63 um. This range of PSD is almost ideal for formulation development.

[5] = test system: primary human gastric cancer xenograft; experiment: Tumor growth in primary human gastric cancer xenograft model; type: in vivo, BALB/c nude mice; details: paclitaxel 15 mg/kg Q4D×3 i.p.; Compound A 12 mg/kg BID p.o.; not statistically different from vehicle
Protocol: as §1, with “gastric cancer.” for “extensive-stage SCLC.”, “surgery, small fragments of” for “biopsy, the”, “(3×3×3 mm^3)” for “samples”, “gastric” for “lung”
All doses were based on free-base weight.
After implantation, primary tumor volume was measured in two dimensions using a calliper. Tumor volume was calculated using the formula: V=0.5×(a×b^2) where a and b are the long and short diameters of the tumor, respectively. Tumor growth inhibition (TGI) was calculated using the following formula:
[formula] Statistical analysis was conducted using the student T-test. P<0.05 was considered statistically significant.

PARP1/2 = details: disclosed in WO2013/097225A1; cited from earlier work

Row | SMILES | fold changes of IFN-γ [1] | mean tumor volume after maintenance [2] [mm^3] | body weight change during the maintenance phase compared to the E/C treatment group [3] | particle size D10 [4] [um] | particle size D50 [4] [um] | particle size D90 [4] [um] | tumor growth inhibition (TGI) on day 21, single agent [5] [%] | PARP1/2 inhibitory activities (PARP1/2)
1 | C[C@]12CCCN1CC1=NNC(=O)c3cc(F)cc4[nH]c2c1c34 [Compound B, (R)-2-fluoro-10a-methyl-7,8,9,10,10a,11-hexahydro-5,6,7a,11-tetraazacyclohepta[def]cyclopenta[a]fluoren-4(5H)-one sesqui-hydrate] | 1.08 | 571 | no significant body weight change | 7.63 | 18.62 | 51.51 | – | –
2 | CC(=O)O[C@H]1C(=O)[C@@]2(C)[C@H]([C@H](OC(=O)c3ccccc3)[C@]3(O)C[C@H](OC(=O)[C@H](O)[C@@H](NC(=O)c4ccccc4)c4ccccc4)C(C)=C1C3(C)C)[C@]1(OC(C)=O)CO[C@@H]1C[C@@H]2O [paclitaxel, reference compound] | – | – | – | – | – | – | 31 | –
3 | C[C@]12CCCN1CC1=NNC(=O)c3cc(F)cc4[nH]c2c1c34 [Compound A, (R)-2-fluoro-10a-methyl-7,8,9,10,10a,11-hexahydro-5,6,7a,11-tetraazacyclohepta[def]cyclopenta[a]fluoren-4(5H)-one] | – | – | – | – | – | – | 30 | highly selective and potent
